The nature of test [1]: Induction of apoptosis in human HMC-1.2 cells assessed as apoptotic cells at 1 uM after 48 hrs by TUNEL staining (reference value: 0.849%). It is filed as functional.
Test [2] can be described thus: Induction of apoptosis in human HMC-1.2 cells assessed as apoptotic cells at 5 uM after 48 hrs by TUNEL staining (reference value: 0.849%). In kind it is functional.

The structures appear in SMILES notation.

For the compound `COc1ccc(-c2cnc3[nH]cc(-c4ccc(OC)c(OC)c4)c3c2)cc1OC`, the Activity in test [1] stood at 13.3%; in test [2] it was 69.9%.

The values above are taken from ChEMBL document CHEMBL3352338, “Development and biological evaluation of potent and selective c-KIT(D816V) inhibitors” (J Med Chem, 2014).
